{
  "source": "patent US20260109707A1",
  "about": "“HETEROBIFUNCTIONAL COMPOUNDS AND METHODS OF TREATING DISEASE” (Halda Therapeutics OpCo. Inc., priority 2022, published 2026)",
  "key": {"[1]": {"tested_on": "T-Rex 293 cell line SC3 cells having increased expression of androgen receptor protein due to exposure to doxycycline", "experiment": "Cellular growth inhibition assay, T-Rex 293 SC3 cells with doxycycline (CellTiter-Glo, 72 hours)", "format": "cell-based", "conditions": "72 h, T-Rex 293 SC3 cells with increased androgen receptor expression due to doxycycline (10 ng/mL)", "procedure,_shortened": "(§1)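 Growth inhibition is measured in an inducible AR-expressing T-Rex 293 clone, SC3, cultured with or without 10 ng/mL doxycycline in hormone-depleted medium. Test compounds are applied for 72 hours. GI50 values derive from CellTiter-Glo 2.0 signal fitted by four-parameter regression.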"}, "[2]": {"tested_on": "T-Rex 293 cell line SC3 cells lacking increased expression of androgen receptor protein", "experiment": "Cellular growth inhibition assay, T-Rex 293 SC3 cells without doxycycline (CellTiter-Glo, 72 hours)", "format": "cell-based", "conditions": "T-Rex 293 cell line SC3 cells not exposed to doxycycline (lacking increased androgen receptor expression)", "procedure,_shortened": "as §1"}, "[3]": {"tested_on": "VCaP cells", "experiment": "Cellular growth inhibition assay for VCaP cells (CellTiter-Glo, 72 hours)", "format": "cell-based, human", "conditions": "Homo sapiens, VCaP, 72 h", "procedure,_shortened": "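Luminescent viability signal after 72 h of compound exposure gave GI50 values by four-parameter nonlinear regression. Compounds were added in 0.5% DMSO to cells plated 24 h earlier at 5000/well in DMEM containing 10% FBS.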"}, "[4]": {"tested_on": "T47D cells", "experiment": "Cellular growth inhibition assay for T47D cells (CellTiter-Glo, 72 hours)", "format": "cell-based, human", "conditions": "Homo sapiens, T47D, 72 h, 72 hours treatment", "procedure,_shortened": "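Growth inhibition as GI50, fitted with four parameters to CellTiter-Glo luminescence after 72 h of compound exposure (0.5% DMSO). Cells were T47D, grown in insulin-supplemented (0.2 units/mL) DMEM with 10% FBS and treated one day post-seeding.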"}},
  "data": [
    {"smiles": "Cc1sc2c(c1C)C(c1ccc(O[C@@H]3CC[C@]4(CCCN(c5ccc(C(=O)N[C@H]6CC[C@H](Oc7ccc(C#N)c(Cl)c7)CC6)nn5)C4)C3)nc1)=N[C@@H](Cc1ncco1)c1nnc(C)n1-2", "note": "[I-284]", "values": [
      {"measurement": "GI50", "setting": "[1]", "value": "< 500", "unit": "nM"},
      {"measurement": "GI50", "setting": "[2]", "value": "< 500", "unit": "nM"},
      {"measurement": "GI50", "setting": "[3]", "value": "< 500", "unit": "nM"},
      {"measurement": "GI50", "setting": "[4]", "value": "500 to 1500", "unit": "nM"}
    ]},
    {"smiles": "Cc1sc2c(c1C)C(c1ccc(CCCC3CCN(c4ccc(C(=O)N[C@H]5CC[C@H](Oc6ccc(C#N)c(Cl)c6)CC5)nn4)CC3)cc1)=NC(Cc1ncco1)c1nnc(C)n1-2", "note": "(some centres unmarked) [I-75]", "values": [
      {"measurement": "GI50", "setting": "[1]", "value": "< 500", "unit": "nM"},
      {"measurement": "GI50", "setting": "[2]; 72 h", "value": "< 500", "unit": "nM"},
      {"measurement": "GI50", "setting": "[3]", "value": "< 500", "unit": "nM"},
      {"measurement": "GI50", "setting": "[4]", "value": "< 500", "unit": "nM"}
    ]},
    {"smiles": "Cc1sc2c(c1C)C(c1ccc(C[C@H]3C[C@@H](C4CCCN(c5ccc(C(=O)N[C@H]6CC[C@H](Oc7ccc(C#N)c(Cl)c7)CC6)nn5)C4)C3)cc1)=N[C@@H](Cc1ncco1)c1nnc(C)n1-2", "note": "(some centres unmarked) [I-120]", "values": [
      {"measurement": "GI50", "setting": "[1]", "value": "< 500", "unit": "nM"},
      {"measurement": "GI50", "setting": "[2]; 72 h", "value": "> 3000", "unit": "nM"},
      {"measurement": "GI50", "setting": "[3]", "value": "> 3000", "unit": "nM"},
      {"measurement": "GI50", "setting": "[4]", "value": "< 500", "unit": "nM"}
    ]},
    {"smiles": "Cc1sc2c(c1C)C(c1ccc(CCC3CCN(c4ccc(C(=O)NC5CCC(Oc6ccc(C#N)c(Cl)c6)CC5)nn4)CC3)cc1)=N[C@@H](Cc1ncco1)c1nnc(C)n1-2", "note": "(stereo partly drawn) [I-74, N-[4-(3-chloro-4-cyano-phenoxy)cyclohexyl]-6-[4-[2-[4-[(9S)-4,5,13-trimethyl-9-(oxazol-2-ylmethyl)-3-thia-1,8,11,12-tetrazatricyclo[8.3.0.02,6]trideca-2(6),4,7,10,12-pentaen-7-yl]phenyl]ethyl]-1-piperidyl]pyridazine-3-carboxamide]", "values": [
      {"measurement": "GI50", "setting": "[1]", "value": "< 500", "unit": "nM"},
      {"measurement": "GI50", "setting": "[2]; 72 h", "value": "< 500", "unit": "nM"},
      {"measurement": "GI50", "setting": "[3]", "value": "< 500", "unit": "nM"},
      {"measurement": "GI50", "setting": "[4]", "value": "< 500", "unit": "nM"}
    ]},
    {"smiles": "Cc1sc2c(c1C)C(c1ccc(OC3CC4(C3)CN(c3ccc(C(=O)N[C@H]5CC[C@H](Oc6ccc(C#N)c(Cl)c6)CC5)nn3)C4)cc1)=N[C@@H](Cc1ncco1)c1nnc(C)n1-2", "note": "[I-91]", "values": [
      {"measurement": "GI50", "setting": "[1]", "value": "< 500", "unit": "nM"},
      {"measurement": "GI50", "setting": "[2]; 72 h", "value": "< 500", "unit": "nM"},
      {"measurement": "GI50", "setting": "[3]", "value": "< 500", "unit": "nM"},
      {"measurement": "GI50", "setting": "[4]", "value": "< 500", "unit": "nM"}
    ]},
    {"smiles": "Cc1sc2c(c1C)C(c1ccc(C3CC([C@@H]4CCCN(c5ccc(C(=O)N[C@H]6CC[C@H](Oc7ccc(C#N)c(Cl)c7)CC6)nn5)C4)C3)cc1)=N[C@@H](Cc1ncco1)c1nnc(C)n1-2", "note": "(some centres unmarked) [I-378]", "values": [
      {"measurement": "GI50", "setting": "[1]", "value": "< 500", "unit": "nM"},
      {"measurement": "GI50", "setting": "[2]; 72 h", "value": "> 3000", "unit": "nM"},
      {"measurement": "GI50", "setting": "[3]", "value": "< 500", "unit": "nM"},
      {"measurement": "GI50", "setting": "[4]", "value": "500 to 1500", "unit": "nM"}
    ]},
    {"smiles": "Cc1sc2c(c1C)C(c1ccc(CC3CN(CC4CCN(c5ccc(C(=O)N[C@H]6CC[C@H](Oc7ccc(C#N)c(Cl)c7)CC6)nn5)CC4)C3)cc1)=N[C@@H](Cc1ncco1)c1nnc(C)n1-2", "note": "[I-113]", "values": [
      {"measurement": "GI50", "setting": "[1]", "value": "< 500", "unit": "nM"},
      {"measurement": "GI50", "setting": "[2]; 72 h", "value": "500 to 1500", "unit": "nM"},
      {"measurement": "GI50", "setting": "[3]", "value": "< 500", "unit": "nM"},
      {"measurement": "GI50", "setting": "[4]", "value": "< 500", "unit": "nM"}
    ]},
    {"smiles": "Cc1sc2c(c1C)C(c1ccc(OC3CC4(C3)CC3(CCN(c5ccc(C(=O)N[C@H]6CC[C@H](Oc7ccc(C#N)c(Cl)c7)CC6)nn5)CC3)C4)nc1)=N[C@@H](C)c1nnc(C)n1-2", "note": "[I-436]", "values": [
      {"measurement": "GI50", "setting": "[1]", "value": "< 500", "unit": "nM"},
      {"measurement": "GI50", "setting": "[2]; 72 h", "value": "> 3000", "unit": "nM"},
      {"measurement": "GI50", "setting": "[3]", "value": "< 500", "unit": "nM"},
      {"measurement": "GI50", "setting": "[4]", "value": "500 to 1500", "unit": "nM"}
    ]},
    {"smiles": "Cc1sc2c(c1C)C(c1ccc(C[C@H]3C[C@]4(CN(c5ccc(C(=O)N[C@H]6CC[C@H](Oc7ccc(C#N)c(Cl)c7)CC6)nn5)CCO4)C3)cc1)=N[C@@H](Cc1ncco1)c1nnc(C)n1-2", "note": "[I-211]", "values": [
      {"measurement": "GI50", "setting": "[1]", "value": "< 500", "unit": "nM"},
      {"measurement": "GI50", "setting": "[2]; 72 h", "value": "< 500", "unit": "nM"},
      {"measurement": "GI50", "setting": "[3]", "value": "< 500", "unit": "nM"},
      {"measurement": "GI50", "setting": "[4]", "value": "< 500", "unit": "nM"}
    ]},
    {"smiles": "Cc1sc2c(c1C)C(c1ccc([C@H]3CCCCN3C(=O)[C@H]3CCCN(c4ccc(C(=O)N[C@H]5CC[C@H](Oc6ccc(C#N)c(Cl)c6)CC5)nn4)C3)cc1)=N[C@@H](Cc1ncco1)c1nnc(C)n1-2", "note": "[I-296]", "values": [
      {"measurement": "GI50", "setting": "[1]", "value": "< 500", "unit": "nM"},
      {"measurement": "GI50", "setting": "[2]; 72 h", "value": "> 3000", "unit": "nM"},
      {"measurement": "GI50", "setting": "[3]", "value": "< 500", "unit": "nM"},
      {"measurement": "GI50", "setting": "[4]", "value": "500 to 1500", "unit": "nM"}
    ]},
    {"smiles": "Cc1sc2c(c1C)C(c1ccc(CCC3CC4(CCCC(c5ccc(C(=O)N[C@H]6CC[C@H](Oc7ccc(C#N)c(Cl)c7)CC6)nn5)C4)C3)nc1)=N[C@@H](Cc1ncco1)c1nnc(C)n1-2", "note": "(some centres unmarked) [I-438]", "values": [
      {"measurement": "GI50", "setting": "[1]", "value": "< 500", "unit": "nM"},
      {"measurement": "GI50", "setting": "[2]; 72 h", "value": "< 500", "unit": "nM"},
      {"measurement": "GI50", "setting": "[3]", "value": "< 500", "unit": "nM"},
      {"measurement": "GI50", "setting": "[4]", "value": "500 to 1500", "unit": "nM"}
    ]},
    {"smiles": "Cc1sc2c(c1C)C(c1ccc([C@H]3CCN(C(=O)[C@H]4CCCN(c5ccc(C(=O)N[C@H]6CC[C@H](Oc7ccc(C#N)c(Cl)c7)CC6)nn5)C4)C3)cc1)=N[C@@H](Cc1ncco1)c1nnc(C)n1-2", "note": "[I-345]", "values": [
      {"measurement": "GI50", "setting": "[1]", "value": "< 500", "unit": "nM"},
      {"measurement": "GI50", "setting": "[2]; 72 h", "value": "> 3000", "unit": "nM"},
      {"measurement": "GI50", "setting": "[3]", "value": "< 500", "unit": "nM"},
      {"measurement": "GI50", "setting": "[4]", "value": "500 to 1500", "unit": "nM"}
    ]},
    {"smiles": "Cc1sc2c(c1C)C(c1ccc(N(C)CC(=O)N3CCC(c4ccc(C(=O)N[C@H]5CC[C@H](Oc6ccc(C#N)c(Cl)c6)CC5)nn4)CC3)cc1)=N[C@H](Cc1ncco1)c1nnc(C)n1-2", "note": "[I-313]", "values": [
      {"measurement": "GI50", "setting": "[1]", "value": "< 500", "unit": "nM"},
      {"measurement": "GI50", "setting": "[2]; 72 h", "value": "> 3000", "unit": "nM"},
      {"measurement": "GI50", "setting": "[3]", "value": "< 500", "unit": "nM"},
      {"measurement": "GI50", "setting": "[4]", "value": "500 to 1500", "unit": "nM"}
    ]},
    {"smiles": "Cc1sc2c(c1C)C(c1ccc(CC3CC4(CCN(c5ccc(C(=O)N[C@H]6CC[C@H](Oc7ccc(C#N)c(Cl)c7)CC6)nn5)CC4)C3)nc1)=N[C@@H](Cc1ncco1)c1nnc(C)n1-2", "note": "[I-347]", "values": [
      {"measurement": "GI50", "setting": "[1]", "value": "< 500", "unit": "nM"},
      {"measurement": "GI50", "setting": "[2]; 72 h", "value": "< 500", "unit": "nM"},
      {"measurement": "GI50", "setting": "[3]", "value": "< 500", "unit": "nM"},
      {"measurement": "GI50", "setting": "[4]", "value": "< 500", "unit": "nM"}
    ]}
  ]
}
